According to the Deep4Chem optical property database:
One block for each molecule: values may come before it.

Experiment: photoluminescence quantum yield (fraction); solvent given as SMILES

Structure (SMILES): CC1=CC(C)=[N+]2C1=C(c1c3ccccc3c(-c3ccccc3)c3ccccc13)c1c(C)cc(C)n1[B-]2(F)F
photoluminescence quantum yield (in CC#N): 0.007
photoluminescence quantum yield (in CCCCCC): 0.9
photoluminescence quantum yield (in CCO): 0.02
photoluminescence quantum yield (in CN(C)C=O): 0.01
photoluminescence quantum yield (in Cc1ccccc1): 0.79
photoluminescence quantum yield (in ClCCl): 0.024

Structure (SMILES): COCCC1=Cc2nc1ccc1[nH]c(cc1CCOC)c1nc(c(OC(C)=O)cc3[nH]c2cc3CCOC)C(CCOC)=C1
photoluminescence quantum yield (in Cc1ccccc1): 0.27

photoluminescence quantum yield (in C1CCCCC1): 0.81
photoluminescence quantum yield (in CCOC(C)=O): 0.86
photoluminescence quantum yield (in CO): 0.82
Structure (SMILES): COC(=O)[C@H](Cc1ccc2oc3c(c2c1)=CC1=C(c2ccc(OC)cc2)c2cc4c5cc(C[C@H](NC(=O)OC(C)(C)C)C(=O)OC)ccc5oc4n2[B-](F)(F)[N+]=31)NC(=O)OC(C)(C)C

photoluminescence quantum yield (in C1CCCCC1): 0.32
Structure (SMILES): CCCC1(CCC)c2cc(C#N)ccc2-c2ccc(C#N)cc21

photoluminescence quantum yield (in C1CCOC1): 0.59
Structure (SMILES): COc1ccc(-c2cc3c(cc2OC)-c2c(c4c(c5c2-c2cc(OC)c(-c6ccc(OC)cc6)cc2C5)C(=O)N(CCC(C)C)C4=O)C3)cc1

photoluminescence quantum yield (in ClC(Cl)Cl): 0.72
Structure (SMILES): N#CC1=CC(C=O)=CC(C#N)=P1(c1ccccc1)c1ccccc1

photoluminescence quantum yield (in C1CCCCC1): 0.98
Structure (SMILES): CCCC1(CCC)c2cc(-c3ccc4c(c3)C(CCC)(CCC)c3cc(-c5ccc6c(c5)C(CCC)(CCC)c5cc(C(C)(C)CC)ccc5-6)ccc3-4)ccc2-c2ccc(-c3ccc4c(c3)C(CCC)(CCC)c3cc(C(C)(C)CC)ccc3-4)cc21

photoluminescence quantum yield (in C1CCOC1): 1
Structure (SMILES): N#Cc1ccc(C2=CC3=c4cc(-c5ccc(C#N)cc5)c5nc(C(F)(F)C(F)(F)C(F)(F)F)nc6c(-c7ccc(C#N)cc7)cc(c4c65)C4=CC(c5ccc(C#N)cc5)=C5N=C(C(F)(F)C(F)(F)C(F)(F)F)N=C2C5C43)cc1 (centres undefined)

photoluminescence quantum yield (in C1CCOC1): 0.046
Structure (SMILES): N#C/C(=C\c1ccc(C=C(c2ccccc2)c2ccccc2)cc1)c1ccc([N+](=O)[O-])cc1

photoluminescence quantum yield (in ClC(Cl)Cl): 0.31
Structure (SMILES): CCCC1(CCC)c2cc(C=C(C#Cc3ccccc3)C#Cc3ccccc3)ccc2-c2ccc(C=C(C#Cc3ccccc3)C#Cc3ccccc3)cc21

photoluminescence quantum yield (in C1CCCCC1): 0.84
photoluminescence quantum yield (in CC#N): 0.73
photoluminescence quantum yield (in CO): 0.55
photoluminescence quantum yield (in ClCCl): 0.64
Structure (SMILES): C(C#Cc1ccc2ccc3cccc4ccc1c2c34)#Cc1cccc2ccccc12

photoluminescence quantum yield (in CC#N): 0.24
photoluminescence quantum yield (in CCCCOCCCC): 0.57
photoluminescence quantum yield (in CO): 0.02
Structure (SMILES): COc1nc(Nc2ccc3ccc4cccc5ccc2c3c45)nc(OC)n1

photoluminescence quantum yield (in O): 0
Structure (SMILES): Cn1c(=O)c2c(ncn2C)n(C)c1=O

Structure (SMILES): Nc1cc(N)cc(-c2nc3ccccc3s2)c1
photoluminescence quantum yield (in C1CCCCC1): 0.102
photoluminescence quantum yield (in C1COCCO1): 0.06
photoluminescence quantum yield (in CC#N): 0.05
photoluminescence quantum yield (in CC(C)O): 0.055
photoluminescence quantum yield (in CCOC(C)=O): 0.053
photoluminescence quantum yield (in CCOCC): 0.061
photoluminescence quantum yield (in CO): 0.015
photoluminescence quantum yield (in O): 0.0091

photoluminescence quantum yield (in C1COCCO1): 0.75
photoluminescence quantum yield (in CC#N): 0.47
photoluminescence quantum yield (in CO): 0.32
Structure (SMILES): N#Cc1ccc(/C=C/C=C/C2=NC3C(=O)NC(N)=NC3N2[C@H]2C[C@H](O)[C@@H](CO)O2)cc1 (some centres undefined)

photoluminescence quantum yield (in C1CCOC1): 0.442
Structure (SMILES): CC(C)(C)c1ccc(C2=C(c3ccc(N(c4ccccc4)c4ccccc4)cc3)S(=O)(=O)c3c2sc(-c2ccc(N(c4ccccc4)c4ccccc4)cc2)c3-c2ccc(C(C)(C)C)cc2)cc1

photoluminescence quantum yield (in CO): 0.64
Structure (SMILES): COC(=O)c1cc(OC)ccc1OC

photoluminescence quantum yield (in ClC(Cl)Cl): 0.65
Structure (SMILES): Cc1cc(C)c(C2=C3C=CC(c4ccccc4O)=[N+]3[B-]3(c4ccccc4)Oc4ccccc4-c4ccc2n43)c(C)c1 (centres undefined)

Structure (SMILES): CN(C)c1ccc(C2=Nc3scc(-c4ccc(C#N)cc4)[n+]3[B-](F)(F)O2)cc1
photoluminescence quantum yield (in C1CCOC1): 0.23
photoluminescence quantum yield (in CC#N): 0.02
photoluminescence quantum yield (in Cc1ccccc1): 0.62
photoluminescence quantum yield (in ClCCl): 0.61

photoluminescence quantum yield (in CO): 0.13
Structure (SMILES): N#Cc1ccc(N/N=C/c2ccc3ccccc3c2O)cc1

photoluminescence quantum yield (in C1CCOC1): 0.63
Structure (SMILES): CCCCOc1cc2ccccc2c2c1oc1cc3ccccc3cc12

Structure (SMILES): O=C1c2ccccc2C(=O)c2cc(-c3ccc(N(c4ccccc4)c4ccccc4)cc3)ccc21
photoluminescence quantum yield (in CCCCCC): 0.392
photoluminescence quantum yield (in CCOC(C)=O): 0.0001
photoluminescence quantum yield (in CCOCC): 0.0129
photoluminescence quantum yield (in Cc1ccccc1): 0.092
photoluminescence quantum yield (in ClC(Cl)(Cl)Cl): 0.326
photoluminescence quantum yield (in ClCCl): 0

photoluminescence quantum yield (in C1CCOC1): 0.053
Structure (SMILES): CN(C)c1ccc(C(=Cc2ccc(/C=C(\C#N)c3ccccc3)cc2)c2ccc(N(C)C)cc2)cc1

photoluminescence quantum yield (in C1CCOC1): 0.35
Structure (SMILES): CC(C)(C)[Si](C)(C)C#CC1=CC2=c3cc(C#C[Si](C)(C)C(C)(C)C)c4nc(C(F)(F)C(F)(F)C(F)(F)F)nc5c(C#C[Si](C)(C)C(C)(C)C)cc(c3c54)C3=CC(C#C[Si](C)(C)C(C)(C)C)=C4N=C(C(F)(F)C(F)(F)C(F)(F)F)N=C1C4C32 (centres undefined)

photoluminescence quantum yield (in CC#N): 0.0011
photoluminescence quantum yield (in CO): 0.001
photoluminescence quantum yield (in O): 0.0014
Structure (SMILES): CN(C)CCCN1c2ccccc2Sc2ccc(C(F)(F)F)cc21

Structure (SMILES): CC1(C)c2ccccc2N2c3ccccc3C3(c4cc(C#N)ccc4-c4ccc(C#N)cc43)c3cccc1c32
photoluminescence quantum yield (in Cc1ccccc1): 0.71

Structure (SMILES): Cc1ccc2c(c1)C1(c3ccccc3Oc3ccccc31)c1cc(C)ccc1N2c1ccc(-c2nc(-c3ccccc3)cc(-c3ccccc3)n2)cc1
photoluminescence quantum yield (in O=P(c1ccccc1)(c1ccccc1)c1ccc2oc3ccc(P(=O)(c4ccccc4)c4ccccc4)cc3c2c1): 0.69

photoluminescence quantum yield (in C1CCOC1): 0.015
Structure (SMILES): CC(C)(C)c1ccc(C2=C(c3ccc(C(C)(C)C)cc3)[Si](c3ccccc3)(c3ccccc3)c3ccccc32)cc1

photoluminescence quantum yield (in ClCCl): 0.27
Structure (SMILES): C(#Cc1c(C#Cc2cccs2)c(C#Cc2cccs2)c(C#Cc2cccs2)c(C#Cc2cccs2)c1C#Cc1cccs1)c1cccs1

photoluminescence quantum yield (in C1CCCCC1): 0.31
photoluminescence quantum yield (in CC#N): 0.14
photoluminescence quantum yield (in ClCCl): 0.27
Structure (SMILES): O=S1c2ccc(-c3c4ccccc4cc4ccccc34)cc2-c2cc(-c3c4ccccc4cc4ccccc34)ccc21

photoluminescence quantum yield (in C1CCOC1): 0.36
Structure (SMILES): CCC1(CC)c2ccccc2-c2c1c1c(c3c2C(CC)(CC)c2cc(N(c4ccccc4)c4ccccc4)ccc2-3)C(CC)(CC)c2cc(N(c3ccccc3)c3ccccc3)ccc2-1

photoluminescence quantum yield (in C1CCOC1): 0.038
Structure (SMILES): CC1=[N+]2C(=C(c3ccc(C(=C(c4ccccc4)c4ccccc4)c4ccccc4)cc3)c3ccc(C)n3[B-]2(F)F)C=C1

Structure (SMILES): CCCCCCCCc1ccc(-c2ccc(/C=C(\C#N)c3ccc(-c4cccc5cccc(-c6ccc(/C(C#N)=C/c7ccc(-c8ccc(CCCCCCCC)cc8)cc7)cc6)c45)cc3)cc2)cc1
photoluminescence quantum yield (in Cc1ccccc1): 0.12

Structure (SMILES): COc1cnc(-c2cc[n+](C3=C(F)C(F)(F)C(F)(F)[C-]3F)cc2)s1
photoluminescence quantum yield (in CC#N): 0.64
photoluminescence quantum yield (in CC(C)=O): 0.44
photoluminescence quantum yield (in CCO): 0.21
photoluminescence quantum yield (in CN(C)C=O): 0.04
photoluminescence quantum yield (in CO): 0.08
photoluminescence quantum yield (in CS(C)=O): 0.02
photoluminescence quantum yield (in ClC(Cl)Cl): 0.73
photoluminescence quantum yield (in ClCCl): 0.76

photoluminescence quantum yield (in C1COCCO1): 0.73
photoluminescence quantum yield (in CC#N): 0.65
photoluminescence quantum yield (in CO): 0.14
photoluminescence quantum yield (in ClCCl): 0.81
Structure (SMILES): N#Cc1nc2c(OCc3ccccc3)nc(N)nc2n1Cc1ccccc1

photoluminescence quantum yield (in CC#N): 0.38
Structure (SMILES): O=C(O)c1ccc(-c2nc(-c3ccccc3)c3c4ccccc4ccn23)cc1

photoluminescence quantum yield (in C1CCOC1): 0.89
photoluminescence quantum yield (in CC#N): 0.85
photoluminescence quantum yield (in ClC(Cl)Cl): 0.86
photoluminescence quantum yield (in ClCCl): 0.86
Structure (SMILES): COc1cc(/C=C/c2nc3ccccc3o2)c(OC)cc1/C=C/c1nc(C)nc(C)n1

Structure (SMILES): C(=C\N1CCCC1)/c1nc2ccccc2nc1-c1ccccc1
photoluminescence quantum yield (in C1CCCCC1): 0.186
photoluminescence quantum yield (in C1CCOC1): 0.445
photoluminescence quantum yield (in CC#N): 0.199
photoluminescence quantum yield (in CC(C)=O): 0.284
photoluminescence quantum yield (in CCO): 0.023
photoluminescence quantum yield (in CO): 0.006
photoluminescence quantum yield (in CS(C)=O): 0.112
photoluminescence quantum yield (in Cc1ccccc1): 0.49
photoluminescence quantum yield (in ClCCl): 0.598

photoluminescence quantum yield (in CC1CCCCC1): 0.84
photoluminescence quantum yield (in CC#N): 0.56
photoluminescence quantum yield (in CO): 0.79
Structure (SMILES): C=CCOc1ccc(-c2nc3cc(C(NC(=O)OC(C)(C)C)C(=O)OC)ccc3o2)cc1 (centres undefined)

photoluminescence quantum yield (in C1CCOC1): 0.06
Structure (SMILES): CCCCCCc1cc2c(s1)-c1sc(CCCCCC)cc1P(c1ccccc1)(c1ccccc1)=[O+][B-]2(c1c(C)cc(C)cc1C)c1c(C)cc(C)cc1C

photoluminescence quantum yield (in CO): 0.005
Structure (SMILES): N#Cc1c(-n2nnc3c2-c2ccccc2CN(C(=O)CCN)c2ccccc2-3)n([C@H]2C[C@H](O)[C@@H](CO)O2)c2ncnc(N)c12

photoluminescence quantum yield (in ClC(Cl)Cl): 0.37
Structure (SMILES): F[B-]1(F)OC(c2ccc(C(F)(F)F)cc2)=Cc2ccc3ccccc3[n+]21

photoluminescence quantum yield (in ClCCl): 0
Structure (SMILES): C(#Cc1ncc(-c2ccccc2)o1)c1ccco1

Structure (SMILES): CC1(C)c2ccccc2N(c2ccc(-c3ccc(C#N)c(C#N)n3)cc2)c2ccccc21
photoluminescence quantum yield (in Cc1ccccc1): 0.489
photoluminescence quantum yield (in N#Cc1ccc2c(c1)c1ccccc1n2-c1cccc(-n2c3ccccc3c3ccccc32)c1): 0.904

Structure (SMILES): c1ccc(-c2nc(-c3ccccc3)nc(-c3cc(-n4c5ccccc5c5ncccc54)c(-n4c5ccccc5c5ccccc54)c(-n4c5ccccc5c5ncccc54)c3)n2)cc1
photoluminescence quantum yield (in O=P(c1ccccc1)(c1ccccc1)c1ccccc1Oc1ccccc1P(=O)(c1ccccc1)c1ccccc1): 0.85

Structure (SMILES): Cc1cc(C)c(B(c2ccccc2N(c2ccccc2)c2ccccc2)c2c(C)cc(C)cc2C)c(C)c1
photoluminescence quantum yield (in Cc1ccccc1): 0.73

photoluminescence quantum yield (in CC#N): 0.43
Structure (SMILES): CC(=O)c1c2c(c(C(C)=O)c3c1OC(CC(=O)O)O3)OCO2

photoluminescence quantum yield (in ClC(Cl)Cl): 0.188
Structure (SMILES): Cc1cccc(C2=Cc3c4ccccc4c4ccccc4[n+]3[B-](F)(F)O2)c1

Structure (SMILES): c1ccc(-c2nc3c(ccc4[nH]ccc43)o2)cc1
photoluminescence quantum yield (in C1CCCCC1): 0.6
photoluminescence quantum yield (in C1COCCO1): 0.78
photoluminescence quantum yield (in CC#N): 0.72
photoluminescence quantum yield (in CO): 0.55
photoluminescence quantum yield (in Cc1ccccc1): 0.69
photoluminescence quantum yield (in O): 0.54

photoluminescence quantum yield (in CC#N): 0.013
photoluminescence quantum yield (in CCCCCC): 0.006
Structure (SMILES): Cc1ccc(-n2c(C)ccc2C)cc1

Structure (SMILES): CCC1(CC)c2cc(/C=C/c3ccc(N(c4ccccc4)c4ccccc4)cc3)ccc2-c2ccc(/C=C/c3ccc(N(c4ccccc4)c4ccccc4)cc3)cc21
photoluminescence quantum yield (in Cc1ccccc1): 0.84

photoluminescence quantum yield (in C1CCCCC1): 0.14
photoluminescence quantum yield (in CO): 0.02
Structure (SMILES): Clc1ccc(/C=C/c2nc3ccccc3o2)cc1

Structure (SMILES): CN(C)c1[se]c(-c2ccccc2)nc1-c1ccccc1
photoluminescence quantum yield (in ClC(Cl)Cl): 0.029

photoluminescence quantum yield (in ClCCl): 0.2
Structure (SMILES): CCCCC(CC)COc1ccc2nc(-c3ccc(-c4cccs4)s3)sc2c1 (centres undefined)

photoluminescence quantum yield (in ClCCl): 0.52
Structure (SMILES): COc1ccc(-c2cnc(/C=C/c3ccccc3)o2)cc1OC
